In US20030207843A1, “Treatment of drug-resistant human immunodeficiency virus infection” (priority 1999, published 2003):
“And” between values parts separate entries of the source, which are not always exact repeats. Identical values can stand only once.

Key:
Assay type in all cases: cell-based
[1] = system: HIV-1LAI L214F; test: p24 reduction assay in MT-2 cells, L214F; conditions: Table 8
Protocol: (§1) Cells. MT-2 cells (AIDS Research and Reference Reagent Program, National Institute of Allergy and Infectious Diseases, National Institutes of Health) were maintained in RPMI 1640 supplemented with 10% fetal bovine serum (FBS; JRH Biosciences, Lenexa, Kans.), 10 mM HEPES buffer, 50 IU/ml penicillin and 50 μg/ml streptomycin.
(§2) Antiviral Susceptibility Assays. The antiviral activity of each compound was determined by inoculating MT-2 cells with HIV-1LAI at a multiplicity of infection (MOI) of 0.01 TCID50/cell, followed by incubation in the presence of three-fold serial drug dilutions (3 wells per dilution) (see Mellors, et. al., Antimicrob. Agents Chemother. 39:1087-1092). Five or seven days after infection, culture supernatants were harvested, lysed with 0.5% triton-X 100 and assayed for p24 antigen concentration using a commercial ELISA assay (DuPont, NEN Products, Wilmington, Del.). The antiviral activity of the compounds is expressed as the IC50, which is the concentration required to inhibit 50% of p24 antigen production. The fold-resistance of a test virus is calculated by dividing the IC50 of the test virus by the IC50 of the HIV-1LAI control virus.
(§3) Generation of Mutant Recombinant HIV-1. […]
(§4) Recombinant viruses containing the mutations selected by invention compounds were also evaluated for their susceptibility to AZT, as shown in Table 8.

[2] = system: HIV-1LAI S117T/L214F; test: p24 reduction assay in MT-2 cells, S117T/L214F; conditions: Table 8
Protocol: as §1, §2
Generation of Mutant Recombinant HIV-1. HIV-1 containing the desired mutations were generated by oligonucleotide directed mutagenesis (Altered Sites II, Promega) as previously described (Mellors, et. al., Molecular Pharm. 41:446-451). After mutagenesis, mutant RT was subcloned into the pxxHIV-1LAI cloning vector using the silent XmaI and XbaI restriction sites located at the 5′ and 3′ ends of RT. Clones were DNA sequenced to verify the presence of the desired mutation(s) and electroporated into MT-2 cells as described above to generate infectious mutant recombinant HIV-1.
Mutant RT was generated via oligonucleotide-directed mutagenesis and ligated into the pXXHIV-1LAI cloning vector. […]
as §4

[3] = system: HIV-1LAI M164I; test: p24 reduction assay in MT-2 cells, M164I; conditions: Table 8
Protocol: as §1, §2, §3, §4

[4] = system: HIV-1LAI S117T/4XAZT; test: p24 reduction assay in MT-2 cells, S117T/4XAZT; conditions: Table 8
Protocol: as §1, §2, §3, §4

[5] = system: HIV-1LAI selected with PFA, passage 17 (W88G); test: Susceptibility of virus selected in vitro with PFA, passage 17
Protocol: as §2
(§5) Selection of Resistant Viruses. […] Viral cytopathic effects (CPE) were monitored daily. […] The passaged virus was monitored regularly for a reduction in susceptibility to the compounds by determining the EC50 relative to unpassaged HIV-1LAI (Mellors, et. al., Antimicrob. Agents Chemother. 39:1087-1092). […]
(§6) As controls for the invention compound selections, HIV-1LAI was passaged in the presence and absence of unmodified PFA. […] None of the mutations selected by the invention compounds or free PFA were detected in control viruses passaged in the absence of drug.

[6] = system: HIV-1LAI selected with PFA, passage 15 (S117T); test: Susceptibility of virus selected in vitro with PFA, passage 15
Protocol: as §2, §5, §6

[7] = system: panel of drug resistant HIV-1 viruses; test: p24 reduction assay, panel of drug resistant HIV-1 viruses (summary); conditions: Human immunodeficiency virus 1, read-out: EC50 values (range over strains)
Protocol: The μM concentration required to produce 50% inhibition of replication of the drug-resistant strain of HIV (EC50) was determined as shown in Table 1. Drug effects were measured by assaying p24 (a viral protein) in the culture medium.

| Compound | EC50 ([1]; Human immunodeficiency virus 1, MT2, L214F, read-out: AZT EC50) [nM] | Fold resistance ([1]; L214F relative to wild type virus) | EC50 ([2]; Human immunodeficiency virus 1, MT2, S117T/L214F, read-out: AZT EC50) [nM] | Fold resistance ([2]; S117T/L214F relative to wild type virus) | EC50 ([3]; Human immunodeficiency virus 1, MT2, M164I, read-out: AZT EC50) [nM] | Fold resistance ([3]; M164I relative to wild type virus) | EC50 ([4]; Human immunodeficiency virus 1, MT2, S117T/4XAZT, read-out: AZT EC50) [nM] | Fold resistance ([4]; S117T/4XAZT relative to wild type virus) | EC50 ([5]; Human immunodeficiency virus 1, Table 6, passage 17 (W88G)) [nM] | Fold resist. ([5]; Table 6, passage 17, relative to passage 0) | EC50 ([6]; Human immunodeficiency virus 1, Table 6, passage 15 (S117T)) [nM] | Fold resist. ([6]; Table 6, passage 15, relative to passage 0) | EC50 [7] [nM] |
| --- | --- | --- | --- | --- | --- | --- | --- | --- | --- | --- | --- | --- | --- |
| Cc1cn([C@H]2C[C@H](N=[N+]=[N-])[C@@H](CO)O2)c(=O)[nH]c1=O [AZT, 3′-Azido-3′-deoxythymidine] | 35 ± 33 | 1.7 | 22 ± 10 | 1.1 | 12 ± 4 | 0.6 | 40 ± 6 | 1.4 |  |  |  |  |  |
| O=C(O)P(=O)(O)O [PFA, phosphonoformate, reference compound] |  |  |  |  |  |  |  |  | 122000 | 23 and 23.2 | 122000 | 23 and 23.2 | 7600 to 37400 |
